The assay in a line: Ability to inhibit human tissue plasminogen activator stimulator.

Usually Ki stands for a measure of affinity in units of concentration, obtained from inhibition or displacement.

The compound `Cc1ccc(N=C(N)N)nc1` [N-(5-Methyl-pyridin-2-yl)-guanidine] had an inhibitory constant (Ki) of 245 µM.

Values taken from BindingDB's records for doi:10.1016/s0960-894x(01)00701-6 (Pfizer, 2001).
